Laboratory results taken from patent publication US20130261133A1, “Therapeutic Compounds for Protozoal and Microbial Infections and Cancer” (THE UNIVERSITY OF MONTANA, priority 2012, published 2013).
Converted amounts (≈) assume the structure as drawn. “And” between values parts separate entries of the source, which are not always exact repeats. Equal entries are not always repeated. Where two headings read alike, the source gives them in different places.

Tests used:
[1] = tested on: P. falciparum clone W2/Indochina; test: In vitro malaria assay, [3H]-hypoxanthine incorporation; assay type: cell-based; details: Plasmodium falciparum, W2, 72 h, read-out: IC50 Plasmodium
Method: a. In vitro Parasite Culturing: P. falciparum clone W2/Indochina was grown in continuous culture using RPMI 1640 media containing 10% heat-inactivated type A+ human plasma, sodium bicarbonate (2.4 g/L), HEPES (5.94 g/L) and 4% washed human type A+ erythrocytes. Cultures were gassed with a 90% N2, 5% O2 and 5% CO2 mixture followed by incubation at 37° C. b. Assay Preparation: Test compounds at 5 mg/mL in DMSO were diluted 1:500 and then serially diluted in duplicate over 11 concentrations. P. falciparum cultures with >70% ring stage parasites were diluted to 0.5-0.7% parasitemia and 1.5% hematocrit in RPMI 1640 media. In 96-well plates a volume of 90 μl/well of parasitized erythrocytes was added on top of 10 μL/well of the test compound. A separate plate containing chloroquine, dihydroartemisinin and atovaquone was added to each set of assay plates as control drugs. A Beckman Coulter Biomek 3000 was used to dispense test compounds, control drugs and parasitized erythrocytes into the microtiter plates. Positive and negative controls were included in each plate. Positive controls consisted of parasitized erythrocytes and negative controls consisted of non-parasitized erythrocytes at 1.5% hematocrit in RPMI 1640 media. Assay plates were placed into a modulator incubator chamber and equilibrated with 90% N2, 5% O2 and 5% CO2 mixture then incubated at 37° C. for 48 hours. After 48 hours, approximately 0.05 μCi of [^3H]-hypoxanthine monohydrochloride was added to each well of the assay plates. Plates were put back into the modulator incubation chamber, gassed with the 90% N2, 5% O2 and 5% CO2 mixture then incubated at 37° C. for an additional 24 hours. After 72 hours total incubation time the plates were frozen at −80° C. until later processed for parasite growth determinations. c. Assay Plate Processing: Assay plates were harvested using a Perkin Elmer FilterMate Harvester. The incorporation of [^3H]-hypoxanthine into nucleic acid was measured using a Perkin Elmer Topcount NXT Microplate Scintillation & Luminescence Counter. d. Data Analysis: Data analysis was performed using a custom database manager (Dataspects, Inc). Nonlinear regression analysis was used to calculate EC50.

[2] = tested on: Leishmania donovani in infected macrophages; details: Senn et al. 2007; read-out: IC50 against Leishmania donovani in infected macrophages; cited from earlier work
Leishmania amazonensis = test: Antileishmanial assay, Leishmania in infected macrophages (L. amazonensis); details: for IC50: Leishmania amazonensis, Macrophage
S. pyogenes = test: MIC broth microdilution, Alamar Blue; assay type: cell-based; details: minimum inhibitory concentration
C. albicans = test: MIC broth microdilution, Alamar Blue; assay type: cell-based; details: minimum inhibitory concentration
C. glabrata = test: MIC broth microdilution, Alamar Blue; assay type: cell-based; details: minimum inhibitory concentration
P. aeruginosa = test: MIC broth microdilution, Alamar Blue; assay type: cell-based; details: minimum inhibitory concentration
HepG2 cells = test: Cytotoxicity against human liver (HepG2) cells, Alamar Blue; assay type: cell-based
Method: Several of these analogues were also evaluated for cytotoxicity against human liver (HepG2) cells. Of particular interest was that compounds 47 and 48 were approximately an order of magnitude less cytotoxic as compared to compound 1.
Adherent cell lines were maintained in Eagle's Minimal Essential Media (Sigma-Aldrich, St. Louis, Mo., USA) with 2 mM glutamine and Earle's Balanced Salt Solution (HyClone, Logan, Utah, USA) adjusted to contain 1.5 g/L sodium bicarbonate, 0.1 mM non-essential amino acids, 1 mM sodium pyruvate and 10% fetal calf serum. Fetal calf serum used in these assays was lot matched throughout. All cultures were maintained under a humidified 5% CO2 atmosphere at 37° C., had media refreshed twice weekly and were subcultured by trypsinization and resuspension at a ratio of 1:5 each week. Toxicity assays were conducted between passages 10-20. Target compound toxicity was measured by incubating the test compound with the cells for 4 hours, washing the cells and finally treating the cells with Alamar Blue. After 12-24 hours, the fluorescence of the reduced dye was measured. Fluorescence intensity as a function of test compound concentration was fit to the Fermi equation, using non-linear least squares regression analysis, to estimate IC50 values.

S. aureus 13709 = test: MIC broth microdilution, Alamar Blue; assay type: cell-based; details: minimum inhibitory concentration
E. faecalis = test: MIC broth microdilution, Alamar Blue; assay type: cell-based; details: minimum inhibitory concentration
B. anthracis = assay type: cell-based; details: minimum inhibitory concentration
B. subtilis = test: MIC broth microdilution, Alamar Blue; assay type: cell-based; details: minimum inhibitory concentration
[3] = tested on: leishmaniasis (LV82 PM infection), liver parasitemia; test: In vivo efficacy: liver parasitemia in BALB/c mice with leishmaniasis; details: 10 mg/kg i.p.; for % Reduction (Average) in liver parasitemia: infected BALB/c mice
Method: The following protocols were used to prepare the various treatments described in Table 2: • a. Miltefosine ([…] stock solution in sterile PBS): 7.5 mg miltefosine was weighed and put in a eppendorf tube, then 0.75 mL of sterile PBS was added. After vortexing, a clear solution was formed. Make 1 mg/mL solution daily by diluting 100 μL of 10 mg/mL miltefosine solution in 900 μL sterile PBS. • b. Vehicle control: 5% (v/v) DMSO, 50% (v/v) PEG 400, 10% (v/v) Ethanol, and 35% (v/v) distilled water. • c. Compound 47 (2 mg/mL solution of compound 47 in PEG 400/Ethanol vehicle): […]. Dilute the above solution 1:20 with PEG 400/EtOH/water daily. After vortexing and warming up at 37° C. for 30 min., a clear solution formed. • d. Compound 48 (2 mg/mL solution of compound 48 in PEG 400/Ethanol vehicle): 6.8 mg of compound 48 was dissolved in 0.17 mL of DMSO to make a 40 mg/mL stock solution. After vortexing, a yellowish-brown solution was formed. Diluted the above solution 1:20 with PEG 400/EtOH/water daily. After vortexing a clear solution formed. • e. Compound 50 (2 mg/mL solution of compound 50 in PEG 400/Ethanol vehicle): 8.4 mg of compound 50 was dissolved in 0.21 mL of DMSO to make a 40 mg/mL stock solution. After vortexing, a dark yellowish-brown solution was formed. Diluted the above solution 1:20 with PEG 400/EtOH/water. After vortexing a clear solution formed.
(§1) Compounds 47, 48, and 50 were then evaluated in animal studies with BALB/c mice with leishmaniasis. Compounds were delivered via i.p. injection at 10 mg/kg, with untreated, vehicle, and miltefosine controls as described in Table 2. […] Miltefosine, the only oral treatment currently available to treat leishmaniasis in humans, was also evaluated in the BALB/c mice for comparison purposes.

Leishmania donovani = test: Antileishmanial assay, Leishmania in infected macrophages (L. donovani); details: for IC50: Leishmania donovani, Macrophage
[4] = Body and organ weights of infected, treated BALB/c mice; assay type: in vivo
Method: as §1

[5] = read-out: IC50 Leishmania in infected macrophages
[6] = read-out: IC50 against Leishmania amazonensis
[7] = HepG2, read-out: IC50 against the HepG2 cell line
[8] = HepG2, read-out: IC50 mammalian HepG2 cells

SMILES	IC50 [1]	IC50 (Leishmania amazonensis; [5])	IC50 (Leishmania amazonensis; [6])	MIC S. pyogenes (S. pyogenes)	MIC C. albicans (C. albicans)	MIC C. glabrata (C. glabrata)	MIC P. aeruginosa (P. aeruginosa)	IC50 (HepG2 cells; [7])	IC50 (HepG2 cells; [8])	MIC S. aureus (S. aureus 13709)	MIC E. faecalis (E. faecalis)	MIC B. anthracis (B. anthracis)	MIC B. subtilis (B. subtilis)	further results
C=CC(C#CC#CC(O)CCCCCCCCC)OC(C)=O [(S,S)-1, 8-hydroxyheptadeca-1-ene-4,6-diyn-3-yl acetate, reference compound]	0.27 mg/L	1.28 µM	1.28 µM	–	–	–	–	–	–	–	–	–	–	IC50 [2]: 0.32 µM
C=C[C@@H](C#CC#C[C@H](O)CCCCCCCCC)OC(C)=O [Compound 1, (3S,8R)-8-hydroxyheptadeca-1-en-4,6-diyn-3-yl acetate]	0.341 mg/L	0.627 µM	0.63 µM	8	>1000	>1000	>1000	35 ± 3 µM	35 ± 3 µM	>1000	32	4	8	Selectivity Index (Leishmania amazonensis; IC50 for HepG2 cells/IC50 for Leishmania amazonensis): 60
C=C[C@H](O)C#CC#C[C@H](O)CCCCCCCCC [Compound 50, (3S,8R)-heptadeca-1-en-4,6-diyne-3,8-diol]	0.271 mg/L (≈ 1.03 µM)	–	–	8	16	8	4	38 ± 2 µM	38 ± 2 µM	16	16	1000	2	LDU mean ± SD ([3]; group mean, n=4): 2367.2; % Reduction (Average) in liver parasitemia [3]: 41.2%; % Reduction (Average) in liver parasitemia ([3]; listed as compound 50): 41%; # of amastigotes per 200 nuclei ([3]; liver, individual mice): 628 and 557 and 643 and 612; LDU ([3]; total liver parasitemia, individual mice): 2737.5 and 2143.9 and 2654.9 and 1932.7; Selectivity Index (Leishmania donovani; IC50 for HepG2 cells/IC50 for Leishmania donovani): 2900; IC50 (Leishmania donovani; [5]): 0.013 µM; IC50 (Leishmania donovani; read-out: IC50 anti-Leishmanial): 0.013 µM; Body weight ([4]; 10 mg/kg i.p., individual mice, Table 4): 15.7 g and 14.6 g and 14.1 g and 13.4 g; Mean body weight of mice Post-treatment ([4]; post-treatment, 10 mg/kg i.p., group mean): 14.5 g; Mean body weight of mice Pre-treatment ([4]; pre-treatment (baseline), group mean): 16.3 g
